# Measured values published in US9988680B2, “Non-natural nucleosides as theranostic agents” (Case Western Reserve University, priority 2011, dated 2018).
# Experiments:
# [1] = target: T1, terminal deoxynucleotidyl transferase (TdT) (Bos taurus, UniProt P06526); assay: Incorporation of natural and non-natural nucleotides by TdT (polymerization assay, Michaelis-Menten kinetics); assay type: biochemical
# Method: All enzymatic assays were performed as previously described. […] Reactions were quenched with 200 Mm EDTA at variable times (5-600 s) and analyzed using denaturing gel electrophoresis. Time courses in product formation were fitted using eq 1: Y=mt+b(1) (1)
# where y is the amount of product, m is the rate of the reaction, t is time, and b is the Y-intercept. Km and Vmax values were determined by fits of the data points to the Michaelis-Menten equation: […]
# where Vmax is the maximal rate of nucleotide incorporation, Km is the Michaelis constant for dNTP, and [dNTP] is the concentration of nucleotide substrate. The IC50 value for 3-Eth-5-NITP was obtained using a nonlinear regression curve fit of the data to eq 3:
# The biological function of TdT is to expand immunological diversity by randomly incorporating dNTPs into single-stranded DNA during V(D)J recombination. […] TdT also utilizes nucleotide analogues including 2′,3′-dideoxynucleotides, dinucleoside 5′,5′-tetraphosphates, and intrinsically fluorescent nucleotide analogues. In this report, we tested if TdT also incorporates indolyl-2′-deoxyribose-5′-triphosphates that bear non-natural moieties such as ethynyl and nitro groups at the 3- and 5-position, respectively, of the indole base. […] Aliquots of the reaction were quenched with EDTA at variable time points, and the polymerization reactions were then subjected to denaturing polyacrylamide gel electrophoresis to separate extended primers from unreacted substrate.
# Time courses in product formation were generated using pseudo-first order reaction conditions in which 6 units of TdT were incubated with 1.5 μM DNA substrate and mixed with variable concentrations of non-natural nucleotide (0.05-50 μM). Each time course was fit to an equation for a straight line to define the rate of nucleotide incorporation (data not shown).
# [2] = target: T1, terminal deoxynucleotidyl transferase (TdT); assay: as above; assay type: biochemical; conditions: reaction times of up to 20 min
# Jurkat cells = assay: Cell proliferation assay (trypan blue), Jurkat; assay type: cell-based; conditions: up to 72 h
# Method: (§1) Cells were seeded at a population density of ˜200,000 cells mL-1 and treated with variable concentrations of non-natural nucleoside (0.1-100 μg mL-1) for up to 72 h. The final DMSO concentration in all experiments was 0.1%. Cell viability was assessed via trypan blue staining and counting the number of viable (clear) versus non-viable (blue) cells under a microscopy using a hemocytometer. The IC50 values for both nonnatural nucleosides were obtained using a nonlinear regression curve fit of the data to eq 3. LD50 values for the non-natural nucleosides were calculated using identical approaches.
# (§2) Identical cell-based experiments were performed with the other ALL cell lines, and the corresponding IC50 and LD50 values for 5-NIdR and 3-Eth-5-NIdR against each cell line are summarized in Table 2. […] The increased potency of 3-Eth-5-NIdR likely reflects the higher catalytic efficiency for the corresponding nucleoside triphosphate to act as a chain-terminating substrate for TdT. […] In general, there is an excellent correlation (R^2=0.695, p<0.0001) between the anti-cancer effects of the non-natural nucleoside with TdT level. Similar analyses were performed by plotting the LD50 values of 3-Eth-5-NIdR as a function of TdT content (FIG. 3E).
# CEM-C7 cells = assay: Cell proliferation assay (trypan blue), CEM-C7; assay type: cell-based; conditions: CEM-C7, up to 72 h
# Method: as §1, §2
# MOLT4 cells [3] = assay: Apoptosis measurement (Annexin V-Alexa Fluor 488 / propidium iodide flow cytometry); assay type: cell-based
# Method: Cells were treated with DMSO (vehicle), 5-NIdR (100 μg mL-1), and 3-Eth-5-NIdR (10 and 40 μg mL-1) as described above. Cells were harvested by centrifugation and washed in phosphate-buffered saline and resuspended in 100 μL of binding buffer containing AnnexinV-Alexa Fluor 488 conjugate. Cells were treated with propidium iodide (PI) and incubated at RT for 15 min followed by flow cytometry analysis. This enables live cells (unstained with either Alexa Fluor 488 or PI) to be discriminated from early apoptotic (stained with Alexa Fluor 488), late apoptotic cells (stained with Alexa Fluor 488 and PI), and necrotic cells (stained with PI).
# The mechanism by which these non-natural nucleosides induce cell death was interrogated using dual parameter FACS analyses measuring propidium iodide uptake and Alexa Fluor488 annexin V conjugate staining. This allows live cells (unstained with either fluorophore) to be distinguished from cells that are early apoptotic (annexin V staining only), late apoptotic (propidium iodide and annexin V staining), and necrotic (propidium iodide staining only). […] In this case, treatment with 100 μg mL^−1 5-NIdR causes a 5-fold increase in early and late stage apoptosis, respectively. […] The induction of apoptosis was also independently confirmed by using agarose gel electrophoresis to observe DNA cleavage sites between nucleosomes that occur in chromatin at ˜200-base pair intervals.
# Loucy cells [4] = assay: In situ click reaction with AlexaFluor488-azide, flow cytometry, Loucy; assay type: cell-based; conditions: 40 μg mL^−1, 2 days
# Method: (§3) In situ “click” reactions were performed using cells harvested after 2 days of treatment with DMSO, 3-Eth-5-NIdR (10, 40, or 100 μg mL^−1), 5-NIdR (100 μg mL^−1) or 5-ethynyl-2′-deoxyuridine (EdU) (10 μM). All cells were fixed with cold methanol. Under minimal lighting, cells were treated with 0.3 mL of saponin-based permeabilization and wash buffer for 45 min at 37° C. Click reactions were initiated by adding the click-iT reaction cocktail according to the instructions of the manufacturer (Invitrogen) followed by incubation at 37° C. for 90 min. Cells were then washed two times with saponin-based permeabilization and wash buffer. Cell pellets were dislodged using 0.5 mL solution of 10 μg mL^−1 PI and RNAase A in saponin-based permeabilization and wash buffer and then incubated for at least 15 min prior to flow cytometry analysis.
# MOLT4 cells were treated with DMSO, EdU (a “clickable” thymidine analogue), 5-NIdR, and 3-Eth-5-NIdR for 2 days and then washed with PBS to remove any nucleoside and/or nucleotide not incorporated into DNA. After fixation and permeabilization, the cells were treated with AlexaFluor488-azide and Cu(I) catalyst to commence “clicking” of any incorporated nonnatural nucleotide. […] Finally, it should be emphasized that low levels (<0.5%) of AlexaFluor488 staining are detected in cells treated with 100 μg mL^−1 5-NIdR.
# MOLT4 cells [5] = assay: In situ click reaction with AlexaFluor488-azide, flow cytometry, MOLT4; assay type: cell-based
# Method: as §3
# MOLT4 cells were treated with DMSO, EdU (a “clickable” thymidine analogue), 5-NIdR, and 3-Eth-5-NIdR for 2 days and then washed with PBS to remove any nucleoside and/or nucleotide not incorporated into DNA. After fixation and permeabilization, the cells were treated with AlexaFluor488-azide and Cu(I) catalyst to commence “clicking” of any incorporated nonnatural nucleotide. Dual parameter flow cytometry applying PI staining coupled with detection of the AlexaFluor488 fluorophore was used to detect the “clicked” non-natural nucleotide in cellular DNA. […] This high amount of “clicked” DNA reflects transport of EdU into the cell, conversion to the corresponding nucleoside triphosphate, and incorporation into the DNA of replicating cells. MOLT4 cells treated with 10 μg mL^−1 3-Eth-5-NIdR also show appreciable levels of AlexaFluor488 stained DNA (2.8%) after 2 days of treatment. Furthermore, the amount of “clicked” DNA is dosedependent as treatment with 40 μg mL^−1 Eth-5-NIdR yields a […] increase in AlexaFluor488 staining (6.5%). Identical experiments were performed using the Loucy cell line that lacks TdT and thus is less sensitive to the cytotoxic effects of the non-natural nucleoside (vide inf ra). […] Treatment with 40 μg mL^−1 of 3-Eth-5-NIdR produces low levels of “clicked” DNA (0.02%). […] Once incorporated into DNA, the non-natural nucleotide inhibits cellular DNA replication and induces apoptosis. Finally, it should be emphasized that low levels (<0.5%) of AlexaFluor488 staining are detected in cells treated with 100 μg mL^−1 5-NIdR.
# J45.01 cells = assay: Cell proliferation assay (trypan blue), J45.01; assay type: cell-based; conditions: J45.01, up to 72 h
# Method: as §1, §2
# Loucy cells [6] = assay: Cell proliferation assay (trypan blue), Loucy; assay type: cell-based
# Method: as §1
# MOLT4 cells [7] = assay: Cell proliferation assay (trypan blue, viable vs non-viable cells), MOLT4; assay type: cell-based; conditions: for IC50 / LD50: MOLT4, up to 72 h
# Method: as §1
# This hypothesis was tested by measuring the cytostatic and/or cytotoxic effects of the corresponding nucleoside, 3-Eth-5-NIdR, and 5-nitroindolyl-2′-deoxynucleoside (5-NIdR) against various ALL cell lines including MOLT4, CEM-C7, Jurkat, RS4(11), JS45.01, and Loucy. Western blot analyses was first performed to determine TdT levels in each ALL cell line. […] We next tested the efficacy of 5-NIdR and 3-Eth-5-NIdR by treating exponentially growing cells with variable concentrations (0.1-100 μg mL^−1) of each non-natural nucleoside for time periods of up to 3 days.
# RS4(11) cells = assay: Cell proliferation assay (trypan blue), RS4(11); assay type: cell-based; conditions: up to 72 h
# Method: as §1, §2
# [8] = MOLT4, 40 μg mL^−1, compared to DMSO
# [9] = Loucy (TdT-negative), up to 72 h
# T1 sequence (P06526 whole entry): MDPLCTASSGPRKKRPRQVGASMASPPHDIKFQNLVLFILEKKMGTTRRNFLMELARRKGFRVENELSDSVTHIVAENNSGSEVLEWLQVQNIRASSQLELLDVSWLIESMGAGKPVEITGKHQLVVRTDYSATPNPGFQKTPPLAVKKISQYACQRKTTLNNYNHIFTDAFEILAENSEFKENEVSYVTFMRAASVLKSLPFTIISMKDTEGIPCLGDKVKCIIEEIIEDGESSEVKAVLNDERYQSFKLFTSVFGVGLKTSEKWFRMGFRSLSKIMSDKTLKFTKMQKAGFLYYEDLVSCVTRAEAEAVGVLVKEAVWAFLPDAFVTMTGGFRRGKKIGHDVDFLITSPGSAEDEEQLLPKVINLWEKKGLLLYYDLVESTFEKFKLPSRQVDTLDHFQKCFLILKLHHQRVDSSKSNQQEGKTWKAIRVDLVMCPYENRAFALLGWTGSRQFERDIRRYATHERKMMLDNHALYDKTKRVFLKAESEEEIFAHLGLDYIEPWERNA
compound,measurement,setting,value
"C#Cc1cn(C2CC(O)C(COP(=O)(O)OP(=O)(O)OP(=O)(O)O)O2)c2ccc([N+](=O)[O-])cc12 (centres unmarked) [3-Eth-5-NITP, 3-ethynyl-5-nitroindolyl-2′-deoxyribose-5′-triphosphate]",utilization by TdT (elongation of 14-mer DNA substrate),"[1]; 100 μM nucleotide, 6 units TdT, 1.5 μM 14-mer (FIG. 2B)",utilized by TdT as efficiently as the natural purines
same,extension by TdT beyond the incorporated nucleotide,"[1]; 100 μM nucleotide, 14-mer DNA, gel (FIG. 2B)",poorly extended
same,Vmax,"[1]; incorporation by TdT, 6 units TdT, 1.5 μM single-stranded DNA substrate",3.2 ± 0.1 nM/s
same,catalytic efficiency higher than that for 5-NITP,[1]; relative to 5-NITP,7 fold
same,decrease in Vmax,[1]; relative to 5-NITP,3.5 fold
same,extension by TdT beyond the incorporated nucleotide at longer reaction times,[2],not observed
"C#Cc1cn([C@H]2C[C@H](O)[C@@H](CO)O2)c2ccc([N+](=O)[O-])cc12 [3-Eth-5-NIdR, 3-ethynyl-5-nitroindolyl-2′-deoxynucleoside]",IC50,Jurkat cells,49 ± 1 µg/mL
same,LD50,Jurkat cells,~100 µg/mL
same,IC50,CEM-C7 cells,23 ± 2 µg/mL
same,LD50,CEM-C7 cells,~100 µg/mL
same,PI uptake (necrotic cell death),MOLT4 cells [3]; MOLT4,no significant PI uptake
same,Early apoptoic cells (%),"MOLT4 cells [3]; MOLT4, 10 μg mL^−1",10.5 ± 1.5%
same,Late apoptoic cells (%),"MOLT4 cells [3]; MOLT4, 10 μg mL^−1",5.4 ± 1.0%
same,Necrotic cells (%),"MOLT4 cells [3]; MOLT4, 10 μg mL^−1",0.7 ± 0.2%
same,Viable cells (%),"MOLT4 cells [3]; MOLT4, 10 μg mL^−1",83.4 ± 2.7%
same,level of apoptosis compared with 100 μg mL^−1 5-NIdR,"MOLT4 cells [3]; MOLT4, 10 μg mL^−1",equivalent levels of apoptosis
same,Early apoptoic cells (%),"MOLT4 cells [3]; MOLT4, 40 μg mL^−1",68.8 ± 0.9%
same,Late apoptoic cells (%),"MOLT4 cells [3]; MOLT4, 40 μg mL^−1",23.7 ± 4.9%
same,Necrotic cells (%),"MOLT4 cells [3]; MOLT4, 40 μg mL^−1",1.2 ± 0.2%
same,Viable cells (%),"MOLT4 cells [3]; MOLT4, 40 μg mL^−1",6.3 ± 3.7%
same,increase in early stage apoptosis,MOLT4 cells [3]; [8],13 fold
same,increase in late stage apoptosis,MOLT4 cells [3]; [8],7 fold
same,clicked DNA (AlexaFluor488 staining),Loucy cells [4],0.02%
same,AlexaFluor488 stained (clicked) DNA,"MOLT4 cells [5]; MOLT4, 10 μg mL^−1, 2 days",2.8%
same,AlexaFluor488 staining (clicked DNA),"MOLT4 cells [5]; MOLT4, 40 μg mL^−1, 2 days",6.5%
same,increase in AlexaFluor488 staining,"MOLT4 cells [5]; MOLT4, 40 vs 10 μg mL^−1",2.5 fold
same,IC50,J45.01 cells,34 ± 6 µg/mL
same,LD50,J45.01 cells,71 ± 6 µg/mL
same,IC50,Loucy cells [6]; [9],62 ± 5 µg/mL
same,LD50,Loucy cells [6]; [9],63 ± 3 µg/mL
same,cytostatic or cytotoxic effects,"Loucy cells [6]; Loucy, 40 μg mL^−1",significant cytostatic or cytotoxic effects are not observed
same,cytostatic and cytotoxic effects,"MOLT4 cells [7]; MOLT4, 10 μg mL^−1",cytostatic and cytotoxic effects are observed
same,IC50,MOLT4 cells [7],14.1 ± 2.4 µg/mL
same,LD50,MOLT4 cells [7],27.7 ± 1.7 µg/mL
same,IC50,MOLT4 cells [7]; listed as 3-Eth-5-NIdr,14 ± 2 µg/mL
same,LD50,MOLT4 cells [7]; listed as 3-Eth-5-NIdr,28 ± 4 µg/mL
same,IC50,RS4(11) cells,23 ± 2 µg/mL
same,LD50,RS4(11) cells,57 ± 2 µg/mL
